Results from paper PMC12445744, “Molecular docking to homology models of human and Trypanosoma brucei ERK8 that identified ortholog-specific inhibitors” (PLOS Neglected Tropical Diseases, 2025).
“And” between values parts separate entries of the source, which are not always exact repeats. Equal entries are not always repeated.

Target: T1, TbERK8 (Trypanosoma brucei brucei, UniProt Q38B88)
T1 sequence (Q38B88 1-442): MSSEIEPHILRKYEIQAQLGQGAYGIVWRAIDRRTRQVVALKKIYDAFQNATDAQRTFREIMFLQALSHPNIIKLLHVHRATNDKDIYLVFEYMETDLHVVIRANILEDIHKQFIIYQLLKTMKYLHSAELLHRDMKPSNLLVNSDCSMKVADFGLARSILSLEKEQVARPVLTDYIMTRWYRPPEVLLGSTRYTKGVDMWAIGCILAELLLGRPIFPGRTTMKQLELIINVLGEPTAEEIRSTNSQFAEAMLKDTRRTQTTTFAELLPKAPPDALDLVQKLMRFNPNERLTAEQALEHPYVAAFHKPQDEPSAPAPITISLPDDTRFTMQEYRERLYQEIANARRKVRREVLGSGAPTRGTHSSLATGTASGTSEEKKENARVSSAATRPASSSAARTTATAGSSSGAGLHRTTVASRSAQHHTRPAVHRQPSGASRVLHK
Experiment: Luciferase-based kinase inhibition assay (ATP luminescence), GST-tagged TbERK8 with MBP substrate
Format: biochemical
Set-up: raw luminescence, TbERK8: unit of the concentration uncertain
Settings: for raw luminescence, TbERK8: replicate wells; for raw luminescence, TbERK8 / Luminescence Raw (Kinase-Glo): listed as Sil; for Luminescence Raw (Kinase-Glo): TbERK8

- IC50: 9 mM
- raw luminescence, TbERK8 (10.00000 (unit uncertain) compound, sheet Kinase_glo 08142024 (2)): 40177.6 RLU (2×) and 40048.6 RLU
- Luminescence Raw (Kinase-Glo) (inhibitor 0.00976562 mM, sheet Sil_Pred3, read 3): 36049.4 and 37274.6 and 36862.3
- Luminescence Raw (Kinase-Glo) (inhibitor 0.0195312 mM, sheet Sil_Pred3, read 3): 31279.7 and 32797.7 and 32247.2
- Luminescence Raw (Kinase-Glo) (inhibitor 0.0390625 mM, sheet Sil_Pred3, read 3): 27320.5 and 29281.3 and 28655.8
- Luminescence Raw (Kinase-Glo) (inhibitor 0.078125 mM, sheet Sil_Pred3, read 3): 38799.7 and 40144.4 and 45260.9
- Luminescence Raw (Kinase-Glo) (inhibitor 0.15625 mM, sheet Sil_Pred3, read 3): 29028.3 and 32258.9 and 32301.1
- Luminescence Raw (Kinase-Glo) (inhibitor 0.3125 mM, sheet Sil_Pred3, read 3): 27939 and 30286.4 and 29686.6
- Luminescence Raw (Kinase-Glo) (inhibitor 0.625 mM, sheet Sil_Pred3, read 3): 36091.6 and 38406.1 and 37640.1
- Luminescence Raw (Kinase-Glo) (inhibitor 0.00976562, sheet Sil_Pred1, read 1): 40167.3 and 42010.2 and 38672.9
- Luminescence Raw (Kinase-Glo) (inhibitor 0.00976562, sheet Sil_Pred2, read 2): 37219 and 38747.1 and 37019
- Luminescence Raw (Kinase-Glo) (inhibitor 0.0195312, sheet Sil_Pred1, read 1): 34760.2 and 36412.8 and 34705.2
- Luminescence Raw (Kinase-Glo) (inhibitor 0.0195312, sheet Sil_Pred2, read 2): 32386.1 and 33904.8 and 32825.7
- Luminescence Raw (Kinase-Glo) (inhibitor 0.0390625, sheet Sil_Pred1, read 1): 30029.2 and 32598.7 and 32204.5
- Luminescence Raw (Kinase-Glo) (inhibitor 0.0390625, sheet Sil_Pred2, read 2): 28304.4 and 29974.3 and 30192.9
- Luminescence Raw (Kinase-Glo) (inhibitor 0.078125, sheet Sil_Pred1, read 1): 43786.6 and 44925.8 and 48645.9
- Luminescence Raw (Kinase-Glo) (inhibitor 0.078125, sheet Sil_Pred2, read 2): 39158.7 and 41749.6 and 45619.7
- Luminescence Raw (Kinase-Glo) (inhibitor 0.15625, sheet Sil_Pred1, read 1): 32447.4 and 35952.1 and 35828.3
- Luminescence Raw (Kinase-Glo) (inhibitor 0.15625, sheet Sil_Pred2, read 2): 29879 and 33446.7 and 32672.2
- Luminescence Raw (Kinase-Glo) (inhibitor 0.3125, sheet Sil_Pred1, read 1): 31858.4 and 33536.2 and 32552.9
- Luminescence Raw (Kinase-Glo) (inhibitor 0.3125, sheet Sil_Pred2, read 2): 29706.8 and 31355.8 and 30890.7
- Luminescence Raw (Kinase-Glo) (inhibitor 0.625, sheet Sil_Pred1, read 1): 41361.5 and 43495.5 and 43241.1
- Luminescence Raw (Kinase-Glo) (inhibitor 0.625, sheet Sil_Pred2, read 2): 37112 and 39789 and 39512.2
SMILES: CCCc1nn(C)c2c(=O)[nH]c(-c3cc(S(=O)(=O)N4CCN(C)CC4)ccc3OCC)nc12 [Sildenafil]
- raw luminescence, TbERK8 (0.00015 (unit uncertain) compound, sheet ADP_ATP_glo081724 (3)): 192.26 RLU and 196.784 RLU and 144.761 RLU
- raw luminescence, TbERK8 (0.00015 (unit uncertain) compound, sheet Kinase_glo 08142024 (2)): 642.503 RLU and 676.319 RLU and 570.644 RLU
- raw luminescence, TbERK8 (0.00015 (unit uncertain) compound, sheet Kinase_glo_080924_IFPS (2)): 1471.05 RLU and 1414.9 RLU and 1313.84 RLU
- raw luminescence, TbERK8 (0.00061 (unit uncertain) compound, sheet ADP_ATP_glo081724 (3)): 122.142 RLU and 174.165 RLU and 104.047 RLU
- raw luminescence, TbERK8 (0.00061 (unit uncertain) compound, sheet Kinase_glo 08142024 (2)): 718.589 RLU and 748.177 RLU and 712.248 RLU
- raw luminescence, TbERK8 (0.00061 (unit uncertain) compound, sheet Kinase_glo_080924_IFPS (2)): 788.303 RLU and 923.056 RLU and 783.811 RLU
- raw luminescence, TbERK8 (0.00244 (unit uncertain) compound, sheet ADP_ATP_glo081724 (3)): 246.545 RLU and 205.831 RLU and 226.188 RLU
- raw luminescence, TbERK8 (0.00244 (unit uncertain) compound, sheet Kinase_glo 08142024 (2)): 701.681 RLU and 748.177 RLU and 629.822 RLU
- raw luminescence, TbERK8 (0.00244 (unit uncertain) compound, sheet Kinase_glo_080924_IFPS (2)): 458.159 RLU and 390.783 RLU and 375.062 RLU
- raw luminescence, TbERK8 (0.00977 (unit uncertain) compound, sheet ADP_ATP_glo081724 (3)): 235.236 RLU and 187.736 RLU and 135.713 RLU
- raw luminescence, TbERK8 (0.00977 (unit uncertain) compound, sheet Kinase_glo 08142024 (2)): 820.036 RLU and 841.171 RLU and 775.653 RLU
- raw luminescence, TbERK8 (0.00977 (unit uncertain) compound, sheet Kinase_glo_080924_IFPS (2)): 660.288 RLU and 590.666 RLU and 547.994 RLU
- raw luminescence, TbERK8 (0.03906 (unit uncertain) compound, sheet ADP_ATP_glo081724 (3)): 210.355 RLU and 205.831 RLU and 187.736 RLU
- raw luminescence, TbERK8 (0.03906 (unit uncertain) compound, sheet Kinase_glo 08142024 (2)): 526.26 RLU and 661.524 RLU and 672.092 RLU
- raw luminescence, TbERK8 (0.03906 (unit uncertain) compound, sheet Kinase_glo_080924_IFPS (2)): 981.449 RLU and 954.498 RLU and 819.745 RLU
- raw luminescence, TbERK8 (0.15625 (unit uncertain) compound, sheet ADP_ATP_glo081724 (3)): 341.544 RLU and 352.854 RLU and 287.259 RLU
- raw luminescence, TbERK8 (0.15625 (unit uncertain) compound, sheet Kinase_glo 08142024 (2)): 849.625 RLU and 830.604 RLU and 743.951 RLU
- raw luminescence, TbERK8 (0.15625 (unit uncertain) compound, sheet Kinase_glo_080924_IFPS (2)): 1302.61 RLU and 956.744 RLU and 1116.2 RLU
- raw luminescence, TbERK8 (0.62500 (unit uncertain) compound, sheet ADP_ATP_glo081724 (3)): 653.684 RLU and 678.565 RLU and 508.924 RLU
- raw luminescence, TbERK8 (0.62500 (unit uncertain) compound, sheet Kinase_glo 08142024 (2)): 1502.69 RLU and 1635.85 RLU and 1447.74 RLU
- raw luminescence, TbERK8 (0.62500 (unit uncertain) compound, sheet Kinase_glo_080924_IFPS (2)): 10771.2 RLU and 11665.1 RLU and 9012.71 RLU
- raw luminescence, TbERK8 (2.50000 (unit uncertain) compound, sheet ADP_ATP_glo081724 (3)): 9775.86 RLU and 9642.41 RLU and 4501.15 RLU
- raw luminescence, TbERK8 (2.50000 (unit uncertain) compound, sheet Kinase_glo 08142024 (2)): 30745 RLU and 32114.6 RLU and 32366.1 RLU
- raw luminescence, TbERK8 (2.50000 (unit uncertain) compound, sheet Kinase_glo_080924_IFPS (2)): 19880.5 RLU and 19849.1 RLU and 15795.3 RLU
- raw luminescence, TbERK8 (10.00000 (unit uncertain) compound, sheet ADP_ATP_glo081724 (3)): 17380.3 RLU and 17721.9 RLU and 17968.4 RLU
- raw luminescence, TbERK8 (10.00000 (unit uncertain) compound, sheet Kinase_glo_080924_IFPS (2), signal = ATP left): 19548.1 RLU and 21185.4 RLU and 21443.6 RLU
